Assay results: PubChem BioAssay (NCI)
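Each compound was tested at five concentrations against cells in 96-well plates for 48 hours. Abbreviation: GI50, concentration required for 50% inhibition of growth. TGI marks complete inhibition of growth.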

Experiments:
Assay in all cases: inhibition of tumour cell growth, NCI panel, 48 h
HCT-15 colon = system: HCT-15 colon
A498 renal = system: A498 renal
T-47D breast = system: T-47D breast
MALME-3M melanoma = system: MALME-3M melanoma
NCI-H460 lung = system: NCI-H460 lung
UACC-62 melanoma = system: UACC-62 melanoma
K-562 leukemia = system: K-562 leukemia
RXF 393 renal = system: RXF 393 renal
MDA-MB-435 = system: MDA-MB-435
HS 578T breast = system: HS 578T breast
UO-31 renal = system: UO-31 renal
DU-145 prostate = system: DU-145 prostate
MDA-MB-468 breast = system: MDA-MB-468 breast
A549 NSCLC = system: A549 NSCLC
PC-3 prostate = system: PC-3 prostate
SK-MEL-28 melanoma = system: SK-MEL-28 melanoma
SW-620 colon = system: SW-620 colon
SK-OV-3 ovarian = system: SK-OV-3 ovarian
HOP-62 NSCLC = system: HOP-62 NSCLC
SNB-19 CNS = system: SNB-19 CNS
M14 melanoma = system: M14 melanoma
BT-549 breast = system: BT-549 breast
HOP-92 NSCLC = system: HOP-92 NSCLC
COLO 205 colon = system: COLO 205 colon
CCRF-CEM leukemia = system: CCRF-CEM leukemia
OVCAR-4 ovarian = system: OVCAR-4 ovarian
SR leukemia = system: SR leukemia
OVCAR-3 ovarian = system: OVCAR-3 ovarian
TK-10 renal = system: TK-10 renal
SF-268 CNS = system: SF-268 CNS
HL-60(TB) leukemia = system: HL-60(TB) leukemia
786-0 renal = system: 786-0 renal
SK-MEL-2 melanoma = system: SK-MEL-2 melanoma
SF-539 CNS = system: SF-539 CNS
MOLT-4 leukemia = system: MOLT-4 leukemia
NCI-H23 lung = system: NCI-H23 lung
SN12C renal = system: SN12C renal
RPMI-8226 leukemia = system: RPMI-8226 leukemia
NCI-H522 lung = system: NCI-H522 lung
MCF7 breast = system: MCF7 breast
HT29 colon = system: HT29 colon
ACHN renal = system: ACHN renal
CAKI-1 renal = system: CAKI-1 renal
OVCAR-5 ovarian = system: OVCAR-5 ovarian
U251 CNS = system: U251 CNS
UACC-257 melanoma = system: UACC-257 melanoma
SNB-75 CNS = system: SNB-75 CNS
HCC-2998 colon = system: HCC-2998 colon
LOX IMVI melanoma = system: LOX IMVI melanoma
SK-MEL-5 melanoma = system: SK-MEL-5 melanoma
KM12 colon = system: KM12 colon
SF-295 CNS = system: SF-295 CNS
EKVX NSCLC = system: EKVX NSCLC
OVCAR-8 ovarian = system: OVCAR-8 ovarian
MDA-MB-231 breast = system: MDA-MB-231 breast
NCI/ADR-RES ovarian = system: NCI/ADR-RES ovarian
HCT-116 colon = system: HCT-116 colon

Molecule `Cc1nc(Nc2ncc(C(=O)Nc3c(C)cccc3Cl)s2)cc(N2CCN(CCCNC(=O)COc3ccc(C4CCC(=O)NC4=O)cc3)CC2)n1` (stereo not drawn) has a GI50 (HCT-15 colon) of 9.01 µM, a TGI (HCT-15 colon) of over 100 µM and a GI50 (A498 renal) of 2.93 µM. The TGI (A498 renal) was over 100 µM, the GI50 (T-47D breast) was 0.454 µM and the TGI (T-47D breast) was over 100 µM. For the same molecule, the GI50 (MALME-3M melanoma) was over 100 µM, the TGI (MALME-3M melanoma) was over 100 µM and the GI50 (NCI-H460 lung) was over 100 µM. For the same molecule, the TGI (NCI-H460 lung) was over 100 µM, the GI50 (UACC-62 melanoma) was over 100 µM and the TGI (UACC-62 melanoma) was over 100 µM. For the same molecule, the GI50 (K-562 leukemia) was under 0.01 µM, the TGI (K-562 leukemia) was over 100 µM and the GI50 (RXF 393 renal) was 0.0147 µM. It also gave a TGI (RXF 393 renal) of 0.081 µM, a GI50 (MDA-MB-435) of over 100 µM and a TGI (MDA-MB-435) of over 100 µM. The GI50 (HS 578T breast) was 0.0167 µM, the TGI (HS 578T breast) was 0.13 µM and the GI50 (UO-31 renal) was 1.47 µM. For the same molecule, the TGI (UO-31 renal) was over 100 µM, the GI50 (DU-145 prostate) was 2.3 µM and the TGI (DU-145 prostate) was over 100 µM. For the same molecule, the GI50 (MDA-MB-468 breast) was 0.172 µM, the TGI (MDA-MB-468 breast) was 5.16 µM and the GI50 (A549 NSCLC) was 2.23 µM. It also gave a TGI (A549 NSCLC) of over 48.1 µM, a GI50 (PC-3 prostate) of 2.43 µM and a TGI (PC-3 prostate) of over 100 µM. It also gave a GI50 (SK-MEL-28 melanoma) of over 100 µM, a TGI (SK-MEL-28 melanoma) of over 100 µM and a GI50 (SW-620 colon) of over 100 µM. It also gave a TGI (SW-620 colon) of over 100 µM, a GI50 (SK-OV-3 ovarian) of 0.505 µM and a TGI (SK-OV-3 ovarian) of 6.95 µM. The GI50 (HOP-62 NSCLC) was 0.336 µM, the TGI (HOP-62 NSCLC) was over 100 µM and the GI50 (SNB-19 CNS) was over 100 µM. The TGI (SNB-19 CNS) was over 100 µM, the GI50 (M14 melanoma) was over 59.2 µM and the TGI (M14 melanoma) was over 100 µM. For the same molecule, the GI50 (BT-549 breast) was over 100 µM, the TGI (BT-549 breast) was over 100 µM and the GI50 (HOP-92 NSCLC) was under 0.01 µM. For the same molecule, the TGI (HOP-92 NSCLC) was 0.0498 µM, the GI50 (COLO 205 colon) was 0.0695 µM and the TGI (COLO 205 colon) was over 100 µM. It also gave a GI50 (CCRF-CEM leukemia) of 34 µM, a TGI (CCRF-CEM leukemia) of over 100 µM and a GI50 (OVCAR-4 ovarian) of over 100 µM. It also gave a TGI (OVCAR-4 ovarian) of over 100 µM, a GI50 (SR leukemia) of 2.8 µM and a TGI (SR leukemia) of over 100 µM. For the same molecule, the GI50 (OVCAR-3 ovarian) was 0.275 µM, the TGI (OVCAR-3 ovarian) was over 100 µM and the GI50 (TK-10 renal) was 0.517 µM. The TGI (TK-10 renal) was 4.12 µM, the GI50 (SF-268 CNS) was 0.11 µM and the TGI (SF-268 CNS) was over 100 µM. For the same molecule, the GI50 (HL-60(TB) leukemia) was over 79.5 µM, the TGI (HL-60(TB) leukemia) was over 100 µM and the GI50 (786-0 renal) was 0.445 µM. It also gave a TGI (786-0 renal) of over 100 µM, a GI50 (SK-MEL-2 melanoma) of over 100 µM and a TGI (SK-MEL-2 melanoma) of over 100 µM. For the same molecule, the GI50 (SF-539 CNS) was 0.0507 µM, the TGI (SF-539 CNS) was 4.7 µM and the GI50 (MOLT-4 leukemia) was 7.64 µM. The TGI (MOLT-4 leukemia) was over 100 µM, the GI50 (NCI-H23 lung) was 16.9 µM and the TGI (NCI-H23 lung) was over 100 µM. For the same molecule, the GI50 (SN12C renal) was 0.0309 µM, the TGI (SN12C renal) was over 100 µM and the GI50 (RPMI-8226 leukemia) was over 100 µM. The TGI (RPMI-8226 leukemia) was over 100 µM, the GI50 (NCI-H522 lung) was 1.3 µM and the TGI (NCI-H522 lung) was over 100 µM. It also gave a GI50 (MCF7 breast) of over 100 µM, a TGI (MCF7 breast) of over 100 µM and a GI50 (HT29 colon) of 0.181 µM. For the same molecule, the TGI (HT29 colon) was 2.54 µM, the GI50 (ACHN renal) was 0.757 µM and the TGI (ACHN renal) was over 100 µM. The GI50 (CAKI-1 renal) was 0.206 µM, the TGI (CAKI-1 renal) was 1.83 µM and the GI50 (OVCAR-5 ovarian) was 0.191 µM. For the same molecule, the TGI (OVCAR-5 ovarian) was over 100 µM, the GI50 (U251 CNS) was over 100 µM and the TGI (U251 CNS) was over 100 µM. For the same molecule, the GI50 (UACC-257 melanoma) was over 100 µM, the TGI (UACC-257 melanoma) was over 100 µM and the GI50 (SNB-75 CNS) was under 0.01 µM. For the same molecule, the GI50 (HCC-2998 colon) was over 100 µM, the TGI (HCC-2998 colon) was over 100 µM and the GI50 (LOX IMVI melanoma) was 0.0182 µM. The TGI (LOX IMVI melanoma) was 0.218 µM, the GI50 (SK-MEL-5 melanoma) was 66.7 µM and the TGI (SK-MEL-5 melanoma) was over 100 µM. It also gave a GI50 (KM12 colon) of over 91.9 µM, a TGI (KM12 colon) of over 100 µM and a GI50 (SF-295 CNS) of 6.78 µM. It also gave a TGI (SF-295 CNS) of over 100 µM, a GI50 (EKVX NSCLC) of 1.85 µM and a TGI (EKVX NSCLC) of over 100 µM. The GI50 (OVCAR-8 ovarian) was 0.934 µM, the TGI (OVCAR-8 ovarian) was over 52.2 µM and the GI50 (MDA-MB-231 breast) was 0.0256 µM. The TGI (MDA-MB-231 breast) was 10.6 µM, the GI50 (NCI/ADR-RES ovarian) was over 100 µM and the TGI (NCI/ADR-RES ovarian) was over 100 µM. The GI50 (HCT-116 colon) was 2.5 µM and the TGI (HCT-116 colon) was over 92.5 µM.
